Results: US9145401B2, “Amide derivative and use of the same as stability index of a luliconazole pharmaceutical formulation” (POLA PHARMA INC., priority 2012, dated 2015)

System: fungi
Test: Antifungal activity of the amide form

`NC(=O)/C(=C1/SCC(c2ccc(Cl)cc2Cl)S1)n1ccnc1` (single isomer, unassigned) [amide form, [R-(E)]-α-[4-(2,4-dichlorophenyl)-1,3-dithiolan-2-ylidene]-1H-imidazole-1-acetamide] was tested, and the antifungal activity was “low”.
